Measurements from article PMC8003416, “Modulation of Human Phenylalanine Hydroxylase by 3-Hydroxyquinolin-2(1H)-One Derivatives” (Biomolecules, 2021).

T1: human phenylalanine hydroxylase (hPAH) (Homo sapiens, UniProt P00439)
T1 construct: Recombinant full-length wild-type (WT) hPAH was expressed in E. coli Top10 cells in fusion with a hexa-histidyl peptide; made in house; host or cells: E. coli Top10
T1 sequence (P00439 1-452): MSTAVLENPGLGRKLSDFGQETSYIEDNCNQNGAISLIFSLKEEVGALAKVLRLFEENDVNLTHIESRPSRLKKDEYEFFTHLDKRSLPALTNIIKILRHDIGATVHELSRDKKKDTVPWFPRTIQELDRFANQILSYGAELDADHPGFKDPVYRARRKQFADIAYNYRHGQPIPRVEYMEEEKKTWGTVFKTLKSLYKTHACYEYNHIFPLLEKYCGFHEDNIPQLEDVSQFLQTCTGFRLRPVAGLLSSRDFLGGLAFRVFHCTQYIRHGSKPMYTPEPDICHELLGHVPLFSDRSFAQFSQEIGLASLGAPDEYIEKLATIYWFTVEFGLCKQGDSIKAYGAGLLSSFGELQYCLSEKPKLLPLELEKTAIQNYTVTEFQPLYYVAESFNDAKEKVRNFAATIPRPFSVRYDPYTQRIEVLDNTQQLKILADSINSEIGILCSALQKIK


Tests used:
[1] = molecular target: T1, human phenylalanine hydroxylase (hPAH); assay: Differential scanning fluorimetry (thermal denaturation); type: binding; conditions: for Tm1 (regulatory domain) / Tm2 (catalytic domain): 100 μM compound in 1% DMSO; for Tm1 (regulatory domain): control 43.4 ± 0.6; for Tm2 (catalytic domain): control 53.5 ± 0.4; for ΔTm1 (regulatory domain) / ΔTm2 (catalytic domain): 100 μM compound vs 1% DMSO control, * S.D. < 0.01; for effect on thermal stability of regulatory and catalytic domains (|ΔTm| ≥ 2 °C): 100 μM compound
Experimental: Thermal denaturation profiles of recombinant hPAH were obtained by differential scanning fluorimetry (DSF) in a C1000 Touch thermal cycler equipped with a CFX96 optical reaction module (Bio-Rad; Hercules, CA, USA) as previously described. Briefly, DSF assays (n = 3) were performed using 100 μg/mL hPAH tetramers (final concentration of 0.45 μM of tetramer), SYPRO Orange (5000-fold commercially available stock solution; Invitrogen; Carlsbad, CA, USA) at a 2.5-x final concentration and ramping the temperature from 20 to 90 °C, at 1 °C/min. Fluorescence data were acquired using the FRET channel. Data were processed using CFX Manager Software V3.0 (Bio-Rad) and the GraphPad Prism. Temperature scan curves were fitted to a biphasic dose–response function and the Tm values were obtained from the midpoint of the first (Tm1) and second transitions (Tm2) corresponding, respectively, to the thermal denaturation of the regulatory and catalytic domains. The Tm values in the presence of 3HQ were compared to those obtained in the presence of 1% DMSO (vehicle control) and a change in the Tm was considered significant when the |ΔTm| ≥ 2 °C [22].

[2] = molecular target: T1, human phenylalanine hydroxylase (hPAH); assay: hPAH enzymatic activity assay (NA, 3HQ-A and Phe/3HQ-A conditions); type: biochemical; conditions: 100 μM compound; for hPAH activity vs respective control: all three conditions (NA, 3HQ-A, Phe/3HQ-A); for fold activation by L-Phe (Phe/3HQ-A vs. 3HQ-A): 100 μM L-Phe
Experimental: The hPAH activity was measured essentially as previously described. Briefly, the enzymatic reaction was performed in a 200 μL final volume, containing 250 mM Na-HEPES, pH 7, 0.1 mg/mL catalase (Sigma-Aldrich; St. Louis, MO, USA), 5 μg (final concentration of 0.112 μM of tetramer) of recombinant hPAH tetramers and 100 μM (NH4)2Fe(II)SO4. Using 100 μM L-Phe and 100 μM of tested compound, three experimental conditions were used to study the compounds’ modulatory effect, namely: non activated (NA), 3HQ-activated (3HQ-A) and substrate/3HQ-activated (Phe/3HQ-A) (Supplementary Figure S3). The reaction was started by addition of 75 μM BH4 (Schircks Laboratories; Bauma, Switzerland) prepared in 5 mM ascorbic acid. In the NA assay, the L-Phe substrate and tested compounds were added together with 75 µM BH4 at the start of the hydroxylation reaction. In the 3HQ-A condition, hPAH was pre-incubated with the tested compound for 4 min at 25 °C and the reaction was started by the addition of BH4 together with L-Phe. In the Phe/3HQ-A condition, hPAH was pre-incubated simultaneously with L-Phe and the tested compound (4 min, 25 °C). Appropriate control reactions were performed where the compounds were omitted and 1% DMSO was used. Kinetic parameters were determined using variable concentrations of L-Phe (25 to 2500 μM) and fixed concentrations of BH4 (75 μM) and tested compound (100 μM). After a 1-min incubation, the reaction was stopped, and the amount of L-Tyr produced was quantified by HPLC as previously described. The specific hPAH enzymatic activity is expressed as nmol of L-Tyr produced during 1 min per mg of protein (nmol L-Tyr.min^−1.mg^−1). The steady-state kinetic data were analyzed by nonlinear regression analysis using GraphPad Prism (La Jolla, CA, USA). Data was fitted to the modified Hill equation accounting for cooperative substrate binding as well as substrate inhibition (Equation (1)), to the modified Michaelis–Menten equation which accounts for substrate inhibition (Equation (2)) and to the non-modified Michaelis–Menten equation:v = (Vmax + Vi ([S]^x/Ki^x))/(1 + (K^h/[S]^h) + ([S]^x/Ki^x))(1) v = (Vmax [S])/(Km + [S](1 + [S]/Ki))(2)

hPAH = molecular target: hPAH; set-up: method as in PMID 9843368; conditions: ref [36]; read-out: KD (high affinity binding to hPAH); cited from earlier work
[3] = molecular target: the molecule itself; assay: SEC; HiLoad Superdex 200 HR column (1.6 x 60 cm), 20 mM Na-HEPES, 200 mM NaCl, pH 7.0, 0.7 mL/min, 4 °C; preparative isolation of the oligomeric form after affinity purification

Tm1 (regulatory domain) [1] [°C]	Tm2 (catalytic domain) [1] [°C]	ΔTm1 (regulatory domain) [1]	ΔTm2 (catalytic domain) [1]	fold enzyme activation by compound (3HQ-A vs. NA) [2]	hPAH activity vs respective control [2]	fold activation by L-Phe (Phe/3HQ-A vs. 3HQ-A) [2]	remaining activity at 100 µM ([2]; NA (non-activated) condition, read-out: hPAH residual activity vs control) [%]	Molecule	effect on thermal stability of regulatory and catalytic domains (|ΔTm| ≥ 2 °C) [1]	Kd (hPAH) [nM]	stoichiometry N [3]
44.6 ± 0.4	53.5 ± 0.1	+1.2 ± 0.01 °C	+0.1 ± 0.01 °C	decreased enzyme activity	–	–	–	CCOC(=O)CNC(=O)c1c(O)c(=O)n(Cc2ccccc2)c2ccccc12 [Compound 13]	–	–	–
45.0 ± 1.9	53.2 ± 0.8	+1.7 ± 0.07 °C	-0.3 ± 0.01 °C	–	–	–	–	O=C(c1c(O)c(=O)[nH]c2ccc(OC(F)(F)F)cc12)N1CCCCC1 [Compound 16]	–	–	–
40.0 ± 1.0	44.0 ± 1.4	–	-9.6 ± 0.31 °C	–	–	–	–	CC(OC(=O)c1c(O)c(=O)[nH]c2ccc(OC(F)(F)F)cc12)c1ccccc1 (stereo not shown) [Compound 18]	destabilized the regulatory and catalytic domains	–	–
42.5 ± 0.2	53.0 ± 0.1	-0.9 ± 0.01 °C	-0.5 ± 0.01 °C	–	–	–	–	O=C(NCc1ccccc1)c1c(O)c(=O)[nH]c2ccc(OC(F)(F)F)cc12 [Compound 6]	–	–	–
39.4 ± 1.0	55.9 ± 0.2	-3.9 ± 0.10 °C	+2.4 ± 0.01 °C	–	high decreases in enzyme activity	–	–	CCOC(=O)[C@H](Cc1ccccc1)NC(=O)c1c(O)c(=O)[nH]c2ccccc12 [Compound 1]	–	–	–
33.0 ± 0.3	35.5 ± 0.1	-10.4 ± 0.09 °C	–	–	–	–	–	CC(CCc1ccccc1)OC(=O)c1c(O)c(=O)[nH]c2ccc(OC(F)(F)F)cc12 (stereo not shown) [Compound 19]	destabilized the regulatory and catalytic domains	–	–
37.8 ± 1.9	42.7 ± 0.3	-5.6 ± 0.28 °C	-10.8 ± 0.08 °C	–	high decreases in enzyme activity	–	–	CCOC(=O)[C@H](Cc1ccccc1)NC(=O)c1c(O)c(=O)n(Cc2ccccc2)c2ccc(OC(F)(F)F)cc12 [Compound 4]	destabilized the regulatory and catalytic domains	–	–
43.8 ± 0.1	53.1 ± 0.1	0.4 ± 0.01 °C	-0.4 ± 0.01 °C	0.6 fold	–	allowing substrate activation	–	O=C(CNC(=O)c1c(O)c(=O)[nH]c2ccc(OC(F)(F)F)cc12)OCc1ccccc1 [Compound 12]	–	–	–
–	–	–	–	–	–	–	–	CNC[C@H](O)c1ccc(O)c(O)c1 [adrenaline]	–	< 1000	–
38.7 ± 0.2	42.3 ± 0.2	-4.7 ± 0.02 °C	-11.2 ± 0.05 °C	–	–	–	–	O=C(Nc1ccccc1)c1c(O)c(=O)[nH]c2ccc(OC(F)(F)F)cc12 [Compound 5]	destabilized the regulatory and catalytic domains	–	–
44.5 ± 0.8	53.3 ± 0.3	+1.1 ± 0.02 °C	-0.2 ± 0.01 °C	–	–	–	–	O=C(c1c(O)c(=O)[nH]c2ccc(OC(F)(F)F)cc12)N1CCCC1 [Compound 15]	–	–	–
44.6 ± 0.2	53.7 ± 0.2	+1.2 ± 0.01 °C	+0.2 ± 0.01 °C	–	–	–	–	CC(C)(C)OC(=O)c1c(O)c(=O)[nH]c2ccc(OC(F)(F)F)cc12 [Compound 17]	–	–	–
–	–	–	–	–	–	–	–	NCCc1ccc(O)c(O)c1 [dopamine]	–	< 1000	–
43.1 ± 0.5	53.4 ± 0.2	-0.3 ± 0.01 °C	–	0.9 fold	–	1.4 fold	68	COC(=O)[C@H](CC(C)C)NC(=O)c1c(O)c(=O)[nH]c2ccc(OC(F)(F)F)cc12 [Compound 10]	–	–	–
44.2 ± 0.1	53.8 ± 0.1	+0.8± 0.01 °C	+0.31± 0.01 °C	–	–	–	–	O=C(c1ccccc1)c1c(O)c(=O)[nH]c2ccc(OC(F)(F)F)cc12 [Compound 20]	–	–	–
35.6 ± 0.2	43.0 ± 0.4	-7.8 ± 0.04 °C	-10.5 ± 0.11 °C	–	high decreases in enzyme activity	–	–	CCOC(=O)[C@H](Cc1ccccc1)NC(=O)c1c(O)c(=O)[nH]c2ccc(Cl)cc12 [Compound 2]	destabilized the regulatory and catalytic domains	–	–
43.3 ± 0.1	53.7 ± 0.1	–	+0.2 ± 0.01 °C	–	–	–	–	CN(Cc1ccccc1)C(=O)c1c(O)c(=O)[nH]c2ccc(OC(F)(F)F)cc12 [Compound 7]	–	–	–
44.8 ± 0.1	53.5 ± 0.1	+1.4 ± 0.01 °C	+0.1 ± 0.01 °C	–	–	did not allow substrate activation	–	O=C(NCc1ccccc1)c1c(O)c(=O)n(Cc2ccccc2)c2ccccc12 [Compound 14]	–	–	–
–	–	–	–	–	–	–	–	NC[C@H](O)c1ccc(O)c(O)c1 [noradrenaline]	–	< 1000	–
–	–	–	–	–	–	–	–	Recombinant full-length wild-type human phenylalanine hydroxylase (enzyme, UniProt P00439 1-452, looked up, human phenylalanine hydroxylase (hPAH; EC 1.14.16.1), full-length wild type, expressed in fusion with a hexa-histidyl peptide; It gives a subunit mass of 55 kDa and an expected tetramer mass of 223 kDa; Non-heme iron sits in the catalytic site; also called hPAH; PAH; source: E. coli Top10, purified (IMAC on Ni-NTA agarose, then SEC to isolate tetramers)) MSTAVLENPGLGRKLSDFGQETSYIEDNCNQNGAISLIFSLKEEVGALAKVLRLFEENDVNLTHIESRPSRLKKDEYEFFTHLDKRSLPALTNIIKILRHDIGATVHELSRDKKKDTVPWFPRTIQELDRFANQILSYGAELDADHPGFKDPVYRARRKQFADIAYNYRHGQPIPRVEYMEEEKKTWGTVFKTLKSLYKTHACYEYNHIFPLLEKYCGFHEDNIPQLEDVSQFLQTCTGFRLRPVAGLLSSRDFLGGLAFRVFHCTQYIRHGSKPMYTPEPDICHELLGHVPLFSDRSFAQFSQEIGLASLGAPDEYIEKLATIYWFTVEFGLCKQGDSIKAYGAGLLSSFGELQYCLSEKPKLLPLELEKTAIQNYTVTEFQPLYYVAESFNDAKEKVRNFAATIPRPFSVRYDPYTQRIEVLDNTQQLKILADSINSEIGILCSALQKIK	–	–	4
